# Data published in patent publication US10202389B2, “Pyrazolopyrimidinyl inhibitors of ubiquitin-activating enzyme” (Millennium Pharmaceuticals, Inc., priority 2012, dated 2019).
# Biological target: recombinant human UAE (Homo sapiens (Human), UniProt P22314)
# Assay: Ubiquitin Activating Enzyme (UAE) HTRF Assay
# Details: read-out: % inhibition @0.111 μM
# Protocol: After incubation for 120 minutes, quantification of the FRET is performed on the Pherostar (BMG).
# For compounds whose values are marked with an asterisk (*), mouse UAE was used. For all other compounds, human UAE was used.
# Sequence of recombinant human UAE (P22314 whole entry): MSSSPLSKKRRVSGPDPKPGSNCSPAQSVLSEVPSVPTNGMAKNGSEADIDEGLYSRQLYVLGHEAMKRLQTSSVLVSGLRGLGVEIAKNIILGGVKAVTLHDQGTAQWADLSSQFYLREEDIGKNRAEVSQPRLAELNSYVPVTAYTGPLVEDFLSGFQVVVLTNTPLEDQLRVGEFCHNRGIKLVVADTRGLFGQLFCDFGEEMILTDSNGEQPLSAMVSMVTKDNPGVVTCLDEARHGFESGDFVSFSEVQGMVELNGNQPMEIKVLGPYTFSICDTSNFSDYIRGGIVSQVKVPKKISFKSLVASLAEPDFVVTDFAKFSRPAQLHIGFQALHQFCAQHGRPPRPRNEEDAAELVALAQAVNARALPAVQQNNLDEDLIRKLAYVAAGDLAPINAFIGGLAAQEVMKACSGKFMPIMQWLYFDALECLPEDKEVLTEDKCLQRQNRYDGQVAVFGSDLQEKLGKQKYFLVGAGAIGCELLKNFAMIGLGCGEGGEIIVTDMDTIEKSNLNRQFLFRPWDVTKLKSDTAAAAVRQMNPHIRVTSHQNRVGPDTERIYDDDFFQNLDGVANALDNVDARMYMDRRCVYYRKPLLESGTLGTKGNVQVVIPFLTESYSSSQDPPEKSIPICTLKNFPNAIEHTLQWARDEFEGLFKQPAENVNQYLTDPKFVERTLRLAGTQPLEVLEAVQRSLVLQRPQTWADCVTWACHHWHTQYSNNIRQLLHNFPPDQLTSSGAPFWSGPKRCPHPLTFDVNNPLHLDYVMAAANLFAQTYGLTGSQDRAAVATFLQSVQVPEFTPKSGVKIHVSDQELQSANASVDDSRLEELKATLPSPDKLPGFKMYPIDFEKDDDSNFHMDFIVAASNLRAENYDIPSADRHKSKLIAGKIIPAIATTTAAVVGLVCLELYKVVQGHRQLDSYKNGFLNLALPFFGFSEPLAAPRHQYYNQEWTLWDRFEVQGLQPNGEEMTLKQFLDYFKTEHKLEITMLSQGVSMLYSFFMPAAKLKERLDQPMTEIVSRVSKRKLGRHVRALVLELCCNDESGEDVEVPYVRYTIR
row,inhibition at 0.111 µM,SMILES
1,100%,"NS(=O)(=O)OC[C@H]1C[C@@H](Nc2ccnc3cc(-c4cccc5cc(C(F)F)ccc45)nn23)[C@H](O)[C@@H]1O [Compound I-111, (s.e.)-((1R,2R,3S,4R)-4-(2-(6-(difluoromethyl)naphthalen-1-yl)pyrazolo[1,5-a]pyrimidin-7-ylamino)-2,3-dihydroxycyclopentyl)methyl sulfamate]"
2,100%,"CCOC(C)(C)c1cccc(-c2cc3nccc(N[C@@H]4C[C@H](COS(N)(=O)=O)[C@@H](O)[C@H]4O)n3n2)c1 (relative stereo) [Compound I-084, (rac)-((1R,2R,3S,4R)-4-(2-(3-(2-ethoxypropan-2-yl)phenyl)pyrazolo[1,5-a]pyrimidin-7-ylamino)-2,3-dihydroxycyclopentyl)methyl rel-sulfamate]"
3,98%,"NS(=O)(=O)OC[C@H]1C[C@@H](Nc2ccnc3cc(-c4ccc(C(F)(F)F)c5cccnc45)nn23)[C@H](O)[C@@H]1O (relative stereo) [Compound I-033, (rac)-((1R,2R,3S,4R)-2,3-dihydroxy-4-(2-(5-(trifluoromethyl)quinolin-8-yl)pyrazolo[1,5-a]pyrimidin-7-ylamino)cyclopentyl)methyl rel-sulfamate]"
4,23%,"NS(=O)(=O)OC[C@H]1C[C@@H](Nc2cc(Cl)nc3cc(-c4ccccc4)nn23)[C@H](O)[C@@H]1O (relative stereo) [Compound I-006, (rac)-{(1R,2R,3S,4R)-4-[(5-chloro-2-phenylpyrazolo[1,5-a]pyrimidin-7-yl)amino]-2,3-dihydroxycyclopentyl}methyl rel-sulfamate]"
5,100%,"CC(C)(c1cccc(-c2cc3nccc(N[C@@H]4C[C@H](COS(N)(=O)=O)[C@@H](O)[C@H]4O)n3n2)c1)C(F)(F)F (relative stereo) [Compound I-058, (rac)-((1R,2R,3S,4R)-2,3-dihydroxy-4-(2-(3-(1,1,1-trifluoro-2-methylpropan-2-yl)phenyl)pyrazolo[1,5-a]pyrimidin-7-ylamino)cyclopentyl)methyl rel-sulfamate]"
6,96%,"CC1(C)COc2c(-c3cc4nccc(N[C@@H]5C[C@H](COS(N)(=O)=O)[C@@H](O)[C@H]5O)n4n3)cccc21 (relative stereo) [Compound I-023, (rac)-((1R,2R,3S,4R)-4-(2-(3,3-dimethyl-2,3-dihydrobenzofuran-7-yl)pyrazolo[1,5-a]pyrimidin-7-ylamino)-2,3-dihydroxycyclopentyl)methyl rel-sulfamate]"
7,100%,"NS(=O)(=O)OC[C@H]1C[C@@H](Nc2ccnc3cc(-c4cccc(N5CCOCC5)c4)nn23)[C@H](O)[C@@H]1O (relative stereo) [Compound I-078, (rac)-((1R,2R,3S,4R)-2,3-dihydroxy-4-(2-(3-morpholinophenyl)pyrazolo[1,5-a]pyrimidin-7-ylamino)cyclopentyl)methyl rel-sulfamate]"
8,100%,"COc1ccc(C(C)(C)C)cc1-c1cc2nccc(N[C@@H]3C[C@H](COS(N)(=O)=O)[C@@H](O)[C@H]3O)n2n1 (relative stereo) [Compound I-063, (rac)-((1R,2R,3S,4R)-4-{[2-(5-tert-butyl-2-methoxyphenyl)pyrazolo[1,5-a]pyrimidin-7-yl]amino}-2,3-dihydroxycyclopentyl)methyl rel-sulfamate]"
9,31%,"Cc1cc(N[C@@H]2C[C@H](COS(N)(=O)=O)[C@@H](O)[C@H]2O)n2nc(-c3ccccc3)cc2n1 (relative stereo) [Compound I-004, (rac)-{(1R,2R,3S,4R)-2,3-dihydroxy-4-[(5-methyl-2-phenylpyrazolo[1,5-a]pyrimidin-7-yl)amino]cyclopentyl}methyl rel-sulfamate]"
10,100%,"C#Cc1cccc(-c2cc3nccc(N[C@@H]4C[C@H](COS(N)(=O)=O)[C@@H](O)[C@H]4O)n3n2)c1 (relative stereo) [Compound I-083, (rac)-[(1R,2R,3S,4R)-4-{[2-(3-ethynylphenyl)pyrazolo[1,5-a]pyrimidin-7-yl]amino}-2,3-dihydroxycyclopentyl]methyl rel-sulfamate]"
11,100%,"COc1ccc2ccccc2c1-c1cc2nccc(N[C@@H]3C[C@H](COS(N)(=O)=O)[C@@H](O)[C@H]3O)n2n1 [Compound I-104, (s.e.)-((1R,2R,3S,4R)-2,3-dihydroxy-4-(2-(2-methoxynaphthalen-1-yl)pyrazolo[1,5-a]pyrimidin-7-ylamino)cyclopentyl)methyl sulfamate]"
12,100%,"NS(=O)(=O)OC[C@H]1C[C@@H](Nc2ccnc3cc(-c4cccc5c4sc4ccccc45)nn23)[C@H](O)[C@@H]1O (relative stereo) [Compound I-056, (rac)-((1R,2R,3S,4R)-4-((2-(Dibenzo[b,d]thiophen-4-yl)pyrazolo[1,5-a]pyrimidin-7-yl)amino)-2,3-dihydroxycyclopentyl)methyl rel-sulfamate]"
13,100%,"NS(=O)(=O)OC[C@H]1C[C@@H](Nc2ccnc3cc(-c4cc(F)c5ccccc5c4)nn23)[C@H](O)[C@@H]1O [Compound I-118, (s.e.)-((1R,2R,3S,4R)-4-(2-(4-fluoronaphthalen-2-yl)pyrazolo[1,5-a]pyrimidin-7-ylamino)-2,3-dihydroxycyclopentyl)methyl sulfamate]"
14,100%,"CC(C)(C)c1cccc(-c2cc3nccc(N[C@@H]4C[C@H](COS(N)(=O)=O)[C@@H](O)[C@H]4O)n3n2)c1 (relative stereo) [Compound I-015, (rac)-((1R,2R,3S,4R)-4-((2-(3-(tert-Butyl)phenyl)pyrazolo[1,5-a]pyrimidin-7-yl)amino)-2,3-dihydroxycyclopentyl)methyl rel-sulfamate]"
15,100%,"NS(=O)(=O)OC[C@H]1C[C@@H](Nc2ccnc3cc(-c4cccc5c4oc4ccccc45)nn23)[C@H](O)[C@@H]1O (relative stereo) [Compound I-010, (rac)-((1R,2R,3S,4R)-4-(2-(dibenzo[b,d]furan-4-yl)pyrazolo[1,5-a]pyrimidin-7-ylamino)-2,3-dihydroxycyclopentyl)methyl rel-sulfamate]"
16,100%,"NS(=O)(=O)OC[C@H]1C[C@@H](Nc2ccnc3cc(-c4cccc(OC(F)(F)F)c4)nn23)[C@H](O)[C@@H]1O (relative stereo) [Compound I-040, (rac)-((1R,2R,3S,4R)-2,3-Dihydroxy-4-((2-(3-(trifluoromethoxy)phenyl)pyrazolo[1,5-a]pyrimidin-7-yl)amino)cyclopentyl)methyl rel-sulfamate]"
17,100%,"CC(C)Oc1ccc2ccccc2c1-c1cc2nccc(N[C@@H]3C[C@H](COS(N)(=O)=O)[C@@H](O)[C@H]3O)n2n1 [Compound I-109, (s.e.)-((1R,2R,3S,4R)-2,3-dihydroxy-4-(2-(2-isopropoxynaphthalen-1-yl)pyrazolo[1,5-a]pyrimidin-7-ylamino)cyclopentyl)methyl sulfamate]"
18,100%,"NS(=O)(=O)OC[C@H]1C[C@@H](Nc2ccnc3cc(-c4cccc(C5CCCC5)c4)nn23)[C@H](O)[C@@H]1O (relative stereo) [Compound I-048, (rac)-[(1R,2R,3S,4R)-4-{[2-(3-cyclopentylphenyl)pyrazolo[1,5-a]pyrimidin-7-yl]amino}-2,3-dihydroxycyclopentyl]methyl rel-sulfamate]"
19,99%,"NS(=O)(=O)OC[C@H]1C[C@@H](Nc2ccnc3cc(-c4cc(C(F)(F)F)ccc4Cl)nn23)[C@H](O)[C@@H]1O (relative stereo) [Compound I-030, (rac)-((1R,2R,3S,4R)-4-((2-(2-Chloro-5-(trifluoromethyl)phenyl)pyrazolo[1,5-a]pyrimidin-7-yl)amino)-2,3-dihydroxycyclopentyl)methyl rel-sulfamate]"
20,100%,"NS(=O)(=O)OC[C@H]1C[C@@H](Nc2ccnc3cc(-c4c[nH]c5ccccc45)nn23)[C@H](O)[C@@H]1O (relative stereo) [Compound I-032, (rac)-[(1R,2R,3S,4R)-2,3-dihydroxy-4-{[2-(1H-indol-3-yl)pyrazolo[1,5-a]pyrimidin-7-yl]amino}cyclopentyl]methyl rel-sulfamate]"
21,100%,"NS(=O)(=O)OC[C@H]1C[C@@H](Nc2ccnc3cc(-c4cccc(N5CCCCC5)c4)nn23)[C@H](O)[C@@H]1O (relative stereo) [Compound I-077, (rac)-((1R,2R,3S,4R)-2,3-dihydroxy-4-(2-(3-(piperidin-1-yl)phenyl)pyrazolo[1,5-a]pyrimidin-7-ylamino)cyclopentyl)methyl rel-sulfamate]"
22,100%,"NS(=O)(=O)OC[C@H]1C[C@@H](Nc2ccnc3cc(-c4cc(Cl)ccc4OC(F)(F)F)nn23)[C@H](O)[C@@H]1O (relative stereo) [Compound I-057, (rac)-((1R,2R,3S,4R)-4-(2-(5-chloro-2-(trifluoromethoxy)phenyl)pyrazolo[1,5-a]pyrimidin-7-ylamino)-2,3-dihydroxycyclopentyl)methyl rel-sulfamate]"
23,100%,"CCCOC(C)(C)c1cccc(-c2cc3nccc(N[C@@H]4C[C@H](COS(N)(=O)=O)[C@@H](O)[C@H]4O)n3n2)c1 (relative stereo) [Compound I-090, (rac)-((1R,2R,3S,4R)-2,3-dihydroxy-4-(2-(3-(2-propoxypropan-2-yl)phenyl)pyrazolo[1,5-a]pyrimidin-7-ylamino)cyclopentyl)methyl rel-sulfamate]"
24,100%,"NS(=O)(=O)OC[C@H]1C[C@@H](Nc2ccnc3cc(-c4ccc5c(c4)oc4ccccc45)nn23)[C@H](O)[C@@H]1O (relative stereo) [Compound I-093, (rac)-((1R,2R,3S,4R)-4-(2-(dibenzo[b,d]furan-3-yl)pyrazolo[1,5-a]pyrimidin-7-ylamino)-2,3-dihydroxycyclopentyl)methyl rel-sulfamate]"
25,84%,"NS(=O)(=O)OC[C@H]1C[C@@H](Nc2ccnc3cc(-c4cccc(Cc5ccccc5)c4)nn23)[C@H](O)[C@@H]1O (relative stereo) [Compound I-069, (rac)-((1R,2R,3S,4R)-4-(2-(3-benzylphenyl)pyrazolo[1,5-a]pyrimidin-7-ylamino)-2,3-dihydroxycyclopentyl)methyl rel-sulfamate]"
